We go through 36 molecules from patent US8673938B2, “Chemical compounds” (priority 2006, dated 2014).

Where only a bound is given, the exact number is not on record here.

The first assay deals with T1, human 11βHSD1 enzyme (Homo sapiens (Human), UniProt P28845).
T1 sequence (P28845 whole entry): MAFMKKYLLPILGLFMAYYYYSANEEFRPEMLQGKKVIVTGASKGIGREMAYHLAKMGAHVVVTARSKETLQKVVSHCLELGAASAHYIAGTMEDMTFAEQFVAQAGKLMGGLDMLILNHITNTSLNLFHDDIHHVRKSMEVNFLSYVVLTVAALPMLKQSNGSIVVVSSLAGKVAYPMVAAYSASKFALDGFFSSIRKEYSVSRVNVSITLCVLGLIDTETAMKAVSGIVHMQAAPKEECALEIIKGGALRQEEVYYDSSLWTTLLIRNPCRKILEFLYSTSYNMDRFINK
Test: not given
The note with it: repeat assays.
In the case of `O=C(O)C[C@@H]1CCCN(c2ccc(C(=O)NC3C4CC5CC(C4)CC3C5)cn2)C1` (stereo partly drawn) [2-[(3S)-1-[5-(2-adamantylcarbamoyl)pyridin-2-yl]-3-piperidyl]acetic acid], the “50% inhibition of the enzyme achieved” value was “achieved 50% inhibition in one assay, but in a subsequent 3 assays did not”.

The same assay, now with this note: test concentration of 30 μM of compound.
On to `O=C(O)C[C@@H]1CCCN(c2ccc(C(=O)N[C@H]3C4CC5CC3C[C@@](O)(C5)C4)c(SCc3ccccc3)n2)C1` [compound 107], for which the “% inhibition of human 11-βHSD” value turned out to be 90%.

Take `O=C(O)C[C@@H]1CCCN(c2ccc(C(=O)NC3C4CC5CC3CC(O)(C5)C4)c(SCCc3ccccc3)n2)C1` (stereo partly drawn) [compound 108]: the “% inhibition of human 11-βHSD” value is recorded as 88%.

With `O=C(O)C[C@@H]1CCCN(c2ccc(C(=O)NC3CCCCC3)cn2)C1` [compound 133], the “% inhibition of human 11-βHSD” value is 58%.

With `O=C(O)C[C@@H]1CCCN(c2ccc(C(=O)NC3CCCCC3)c(N3CCCC3)n2)C1` [compound 155], the “% inhibition of human 11-βHSD” value came out at 94%.

As for `O=C(O)C[C@@H]1CCCN(c2ccc(C(=O)NC3CCCCC3)c(N3CCOCC3)n2)C1` [compound 156], the “% inhibition of human 11-βHSD” value stood at 78%.

`Cc1nc(N2CCC[C@@H](CC(=O)O)C2)ccc1C(=O)NC1CCCCC1` [compound 159]: the “% inhibition of human 11-βHSD” value was found to be 55%.

For the molecule `Cc1nc(N2CCC[C@@H](CC(=O)O)C2)ccc1C(=O)NC12CC3CC(CC(C3)C1)C2` [compound 160], the “% inhibition of human 11-βHSD” value was found to be 80%.

As for `Cc1nc(N2CCC[C@@H](CC(=O)O)C2)ccc1C(=O)NC1C2CC3CC(C2)CC1C3` (stereo partly drawn) [compound 161], the “% inhibition of human 11-βHSD” value is recorded as 84%.

Another assay deals with T1, human 11βHSD1 enzyme. The assay can be described thus: biochemical.
Conditions: not given
With `O=C(O)C[C@@H]1CCCN(c2ccc(C(=O)NC34CC5CC(CC(C5)C3)C4)cn2)C1` [{(3S)-1-[5-(adamantan-1-ylcarbamoyl)pyridin-2-yl]piperidin-3-yl}acetic acid, reference compound], the half-inhibitory concentration (IC50) (in general, the concentration that inhibits the measured activity by half) is over 30 µM.

For the molecule `O=C(O)C[C@@H]1CCCN(c2ccc(C(=O)NC3CCCCC3)c(N3CCNCC3)n2)C1` [{(3S)-1-[5-(cyclohexylcarbamoyl)-6-(piperazin-1-yl)pyridin-2-yl]piperidin-3-yl}acetic acid], the IC50 was over 30 µM.

Staying with this assay, now noted: read-out: % inhibition of human 11-βHSD.
For the molecule `O=C(N[C@H]1C2CC3CC1C[C@](OC(F)F)(C3)C2)c1ccc(N2CC[C@@H](C(=O)O)C2)nc1SC1CCCC1` [Example 182, (3R)-1-[6-cyclopentylsulfanyl-5-[[(2r,5s)-5-(difluoromethoxy)-2-adamantyl]carbamoyl]pyridin-2-yl]pyrrolidine-3-carboxylic acid], the inhibition (commonly the change of the read-out against control, counted positive when it falls) at 30 µM stood at 91%.

For `CCCSc1nc(N2CC[C@H](CC(=O)O)C2)ccc1C(=O)N[C@H]1C2CC3CC1C[C@](OC(F)F)(C3)C2` [Example 184, 2-[(3R)-1-[5-[[(2r,5s)-5-(difluoromethoxy)-2-adamantyl]carbamoyl]-6-propylsulfanyl-pyridin-2-yl]pyrrolidin-3-yl]acetic acid], the inhibition at 30 µM came out at 94%.

Consider `CCCSc1nc(N2CCC(C(=O)O)C2)ccc1C(=O)N[C@H]1C2CC3CC1C[C@](OC(F)F)(C3)C2` (stereo partly drawn) [Example 185, 1-[5-[[(2r,5S)-5-(difluoromethoxy)-2-adamantyl]carbamoyl]-6-propylsulfanyl-pyridin-2-yl]pyrrolidine-3-carboxylic acid], for which the inhibition at 30 µM was determined as 97%.

Turning to `CCCSc1nc(N2CCC[C@@H](CC(=O)O)C2)c(F)cc1C(=O)NC1CCCCC1` [Example 186, (S)-2-(1-(5-(Cyclohexylcarbamoyl)-3-fluoro-6-(propylthio)pyridin-2-yl)piperidin-3-yl)acetic acid], the inhibition at 30 µM turned out to be 104%.

On to `CCCSc1nc(N2CCC[C@H](CC(=O)O)C2)c(F)cc1C(=O)NC1CCCCC1` [Example 187, (R)-2-(1-(5-(Cyclohexylcarbamoyl)-3-fluoro-6-(propylthio)pyridin-2-yl)piperidin-3-yl)acetic acid], for which the inhibition at 30 µM came to 90%.

`O=C(O)C[C@@H]1CCCN(c2ccc(C(=O)NC3CCCCC3)c(SCCc3cccnc3)n2)C1` [compound 131, 2-[(3S)-1-[5-(cyclohexyl-carbamoyl)-6-(2-pyridin-3-ylethylsulfanyl)pyridin-2-yl]-3-piperidyl] acetic acid]: the inhibition at 30 µM worked out at 91%.

For `O=C(O)C[C@@H]1CCCN(c2ccc(C(=O)NC3CCCCC3)c(SCCc3cnccn3)n2)C1` [compound 132, 2-[(3S)-1-[5-(cyclohexyl-carbamoyl)-6-(2-pyrazin-2-ylethylsulfanyl)pyridin-2-yl]-3-piperidyl] acetic acid], the inhibition at 30 µM came out at 98%.

For `O=C(O)C[C@@H]1CCCN(c2ccc(C(=O)NC3CCCCC3)c(OCCc3ccc(F)cc3)n2)C1` [compound 135, 2-[(3S)-1-[5-(cyclohexyl-carbamoyl)-6-[2-(4-fluorophenyl)ethoxy]pyridin-2-yl]-3-piperidyl] acetic acid], the inhibition at 30 µM stood at 92%.

Regarding `O=C(O)C[C@@H]1CCCN(c2ccc(C(=O)NC3CCCCC3)c(OCCCc3ccccc3)n2)C1` [compound 137, 2-[(3S)-1-[5-(cyclohexyl-carbamoyl)-6-(3-phenylpropoxy)pyridin-2-yl]-3-piperidyl] acetic acid], the inhibition at 30 µM was 99%.

Consider `O=C(O)C[C@@H]1CCCN(c2ccc(C(=O)NC3CCCCC3)c(OCCc3cccnc3)n2)C1` [compound 138, 2-[(3S)-1-[5-(cyclohexyl-carbamoyl)-6-(2-pyridin-3-ylethoxy)pyridin-2-yl]-3-piperidyl] acetic acid], for which the inhibition at 30 µM stood at 98%.

Take `COc1nc(N2CCC[C@@H](CC(=O)O)C2)ccc1C(=O)NC1CCCCC1` [compound 139, 2-[(3S)-1-[5-(cyclohexyl-carbamoyl)-6-methoxy-pyridin-2-yl]-3-piperidyl] acetic acid]: the inhibition at 30 µM was 89%.

Consider `O=C(O)C[C@@H]1CCCN(c2ccc(C(=O)NC3CCCCC3)c(N3CCCCC3)n2)C1` [compound 141, 2-[(3S)-1-[5-(cyclohexylcarbamoyl)-6-(1-piperidyl)pyridin-2-yl]-3-piperidyl]acetic acid], for which the inhibition at 30 µM turned out to be 96%.

Regarding `O=C(O)C[C@@H]1CCCN(c2ccc(C(=O)NC3CCCCC3)c(NCCc3ccc(Cl)cc3)n2)C1` [compound 142, 2-[(3S)-1-[6-[2-(4-chlorophenyl)ethylamino]-5-(cyclohexylcarbamoyl)pyridin-2-yl]-3-piperidyl]acetic acid], the inhibition at 30 µM is 94%.

`O=C(O)C[C@@H]1CCCN(c2ccc(C(=O)NC3CCCCC3)c(N3CCC(c4ccc(F)cc4)C3)n2)C1` (stereo partly drawn) [compound 143, 2-[(3S)-1-[5-(cyclohexylcarbamoyl)-6-[3-(4-fluorophenyl)pyrrolidin-1-yl]pyridin-2-yl]-3-piperidyl]acetic acid]: the inhibition at 30 µM was 95%.

`O=C(O)C[C@@H]1CCCN(c2ccc(C(=O)NC3CCCCC3)c(N3CCc4ccccc4C3)n2)C1` [compound 144, 2-[(3S)-1-[5-(cyclohexylcarbamoyl)-6-(3,4-dihydro-1H-isoquinolin-2-yl)pyridin-2-yl]-3-piperidyl]acetic acid]: the inhibition at 30 µM was 93%.

As for `O=C(O)C[C@@H]1CCCN(c2ccc(C(=O)NC3CCCCC3)c(N3CCN(c4ccccc4)CC3)n2)C1` [compound 145, 2-[(3S)-1-[5-(cyclohexylcarbamoyl)-6-(4-phenylpiperazin-1-yl)pyridin-2-yl]-3-piperidyl]acetic acid], the inhibition at 30 µM turned out to be 84%.

For the molecule `O=C(O)C[C@@H]1CCCN(c2ccc(C(=O)NC3CCCCC3)c(N3CCN(C(=O)c4ccc(F)cc4)CC3)n2)C1` [compound 146, 2-[(3S)-1-[5-(cyclohexyl-carbamoyl)-6-[4-(4-fluorobenzoyl)piperazin-1-yl]pyridin-2-yl]-3-piperidyl]acetic acid], the inhibition at 30 µM came to 58%.

With `CC(=O)N1CCN(c2nc(N3CCC[C@@H](CC(=O)O)C3)ccc2C(=O)NC2CCCCC2)CC1` [compound 147, 2-[(3S)-1-[6-(4-acetylpiperazin-1-yl)-5-(cyclohexylcarbamoyl)pyridin-2-yl]-3-piperidyl]acetic acid], the inhibition at 30 µM worked out at 86%.

For `CCS(=O)(=O)N1CCN(c2nc(N3CCC[C@@H](CC(=O)O)C3)ccc2C(=O)NC2CCCCC2)CC1` [compound 148, 2-[(3S)-1-[5-(cyclohexyl-carbamoyl)-6-(4-ethylsulfonyl-piperazin-1-yl)pyridin-2-yl]-3-piperidyl]acetic acid], the inhibition at 30 µM is 56%.

Regarding `O=C(O)C[C@@H]1CCCN(c2ccc(C(=O)NC3CCCCC3)c(N3CCN(S(=O)(=O)c4ccccc4)CC3)n2)C1` [compound 149, 2-[(3S)-1-[6-[4-(benzenesulfonyl)piperazin-1-yl]-5-(cyclohexyl-carbamoyl)pyridin-2-yl]-3-piperidyl]acetic acid], the inhibition at 30 µM amounted to 83%.

With `O=C(O)C[C@@H]1CCCN(c2ccc(C(=O)NC3CCCCC3)c(N3CCN(C(=O)OCc4ccccc4)CC3)n2)C1` [compound 150, 2-[(3S)-1-[5-(cyclohexylcarbamoyl)-6-(4-phenylmethoxy-carbonylpiperazin-1-yl)pyridin-2-yl]-3-piperidyl]acetic acid], the inhibition at 30 µM amounted to 74%.

Consider `O=C(O)C[C@@H]1CCCN(c2ccc(C(=O)NC3CCCCC3)c(NCCc3ccccc3)n2)C1` [compound 152, 2-[(3S)-1-[5-(cyclohexylcarbamoyl)-6-(phenethylamino)pyridin-2-yl]-3-piperidyl]acetic acid], for which the inhibition at 30 µM stood at 81%.

On to `CN(CCc1ccccc1)c1nc(N2CCC[C@@H](CC(=O)O)C2)ccc1C(=O)NC1CCCCC1` [compound 153, 2-[(3S)-1-[5-(cyclohexylcarbamoyl)-6-(methyl-phenethyl-amino)pyridin-2-yl]-3-piperidyl]acetic acid], for which the inhibition at 30 µM is 92%.

As for `CCCNc1nc(N2CCC[C@@H](CC(=O)O)C2)ccc1C(=O)N(C)C1CCCCC1` [compound 157, 2-[(3S)-1-[5-(cyclohexyl-methyl-carbamoyl)-6-propylamino-pyridin-2-yl]-3-piperidyl]acetic acid], the inhibition at 30 µM was 91%.

Turning to `CCCSc1nc(N2CCC[C@@H](CC(=O)O)C2)ccc1C(=O)N(C)C1CCCCC1` [compound 169, 2-[(3S)-1-[5-(cyclohexyl-methyl-carbamoyl)-6-propylsulfanyl-pyridin-2-yl]-3-piperidyl]acetic acid], the inhibition at 30 µM was found to be 100%.
